Paper PMC2941991 (ACS chemical biology, 2009)

Biological target: T1, T877A full-length androgen receptor mutant (Homo sapiens, UniProt P10275, T878A)
T1 sequence (P10275 1-920 T878A): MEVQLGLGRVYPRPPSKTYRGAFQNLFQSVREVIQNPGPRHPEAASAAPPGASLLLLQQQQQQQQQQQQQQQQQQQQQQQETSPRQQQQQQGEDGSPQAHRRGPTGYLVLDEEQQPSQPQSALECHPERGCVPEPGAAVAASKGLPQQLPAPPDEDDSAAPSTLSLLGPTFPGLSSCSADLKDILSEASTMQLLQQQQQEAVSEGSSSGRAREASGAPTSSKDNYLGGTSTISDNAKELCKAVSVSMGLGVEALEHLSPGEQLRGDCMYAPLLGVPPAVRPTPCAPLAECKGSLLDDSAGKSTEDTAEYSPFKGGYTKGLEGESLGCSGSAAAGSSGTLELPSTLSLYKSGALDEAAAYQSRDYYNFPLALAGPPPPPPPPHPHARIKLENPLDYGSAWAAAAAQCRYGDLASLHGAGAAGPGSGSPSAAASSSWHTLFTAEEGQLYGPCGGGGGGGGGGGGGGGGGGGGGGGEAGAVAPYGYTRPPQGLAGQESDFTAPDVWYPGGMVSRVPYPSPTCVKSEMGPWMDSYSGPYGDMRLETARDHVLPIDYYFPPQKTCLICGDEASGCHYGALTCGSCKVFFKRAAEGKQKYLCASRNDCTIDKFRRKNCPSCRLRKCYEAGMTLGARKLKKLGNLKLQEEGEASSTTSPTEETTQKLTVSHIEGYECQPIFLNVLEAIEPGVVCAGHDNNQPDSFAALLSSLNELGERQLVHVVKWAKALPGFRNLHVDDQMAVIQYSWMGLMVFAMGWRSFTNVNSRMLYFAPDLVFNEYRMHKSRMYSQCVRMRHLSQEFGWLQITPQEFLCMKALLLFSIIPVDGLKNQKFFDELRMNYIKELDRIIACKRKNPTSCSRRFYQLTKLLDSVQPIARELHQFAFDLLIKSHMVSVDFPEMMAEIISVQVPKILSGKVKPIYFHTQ
Experiment: Luciferase reporter gene assay, full-length AR with the LNCaP mutation
Type: cell-based

In the case of `CC(C)(O)C(=O)Nc1ccc([N+](=O)[O-])c(C(F)(F)F)c1` [OH-Flu, 2-hydroxyflutamide], the “Agonist or antagonist action on the AR T877A mutant” value was “act as agonists”.
